Test: Compatibility test of silodosin with polymer-based materials
Assay type: physicochemical
Settings: silodosin:material 1:1 by mass, 40° C., 75% relative humidity, 4 weeks, visual examination
Description: Silodosin and a variety of polymer-based materials were mixed in the mass ratio of 1:1. The mixtures were stored at 40° C. under 75% relative humidity for 4 weeks, and the changes on blending, i.e. incompatibility, were checked. Degradation products were quantified by a liquid chromatography method and a degree of discoloration was checked by visual examination.
Samples equivalent to 20 mg of silodosin were weighed, and test solutions were prepared and analyzed by the liquid chromatography method. Each peak area was measured by an automatic integration method and a content rate of degradation product (KMD-3241) (%) was calculated by an area percentage method.
Detector: Ultraviolet Absorption Photometer (Wavelength: 225 nm)

- Color change (fading): −
SMILES: C[C@H](Cc1cc2c(c(C(N)=O)c1)N(CCCO)CC2)NCCOc1ccccc1OCC(F)(F)F [Silodosin (reference), Silodosin]
